Test results: ChEMBL document CHEMBL4024759, “One-Bead-Two-Compound Thioether Bridged Macrocyclic γ-AApeptide Screening Library against EphA2” (J Med Chem, 2017)

Legend:
Homo sapiens = organism: Homo sapiens; assay: Selectivity ratio of Kd for GST (unknown origin) to Kd for recombinant human GST-tagged EphA2 cytoplasmic domain (560 to 976 residues) expressed in baculovirus expression system
[1] = Binding affinity to GST (unknown origin) by fluorescence polarization assay; set-up: species or system Homo sapiens
[2] = target: T1, NF-kappa-B inhibitor alpha (Homo sapiens, UniProt P25963); assay: Binding affinity to NFKBIA (unknown origin)
T1 sequence (P25963 whole entry): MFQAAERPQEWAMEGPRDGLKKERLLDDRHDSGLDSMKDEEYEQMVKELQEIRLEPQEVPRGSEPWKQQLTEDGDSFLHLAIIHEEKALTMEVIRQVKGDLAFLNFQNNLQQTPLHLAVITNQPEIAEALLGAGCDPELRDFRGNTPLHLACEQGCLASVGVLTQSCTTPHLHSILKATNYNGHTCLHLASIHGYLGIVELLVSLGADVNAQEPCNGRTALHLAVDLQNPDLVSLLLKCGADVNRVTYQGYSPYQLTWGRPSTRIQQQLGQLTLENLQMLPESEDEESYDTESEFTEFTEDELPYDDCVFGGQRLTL

Ephrin type-A receptor 2 = Ephrin type-A receptor 2 (Homo sapiens, UniProt P29317); assay: Binding affinity to recombinant human GST-tagged EphA2 cytoplasmic domain (560 to 976 residues) expressed in baculovirus expression system by fluorescence polarization assay
Chain of Ephrin type-A receptor 2 (P29317 whole entry, the tested form may be a part): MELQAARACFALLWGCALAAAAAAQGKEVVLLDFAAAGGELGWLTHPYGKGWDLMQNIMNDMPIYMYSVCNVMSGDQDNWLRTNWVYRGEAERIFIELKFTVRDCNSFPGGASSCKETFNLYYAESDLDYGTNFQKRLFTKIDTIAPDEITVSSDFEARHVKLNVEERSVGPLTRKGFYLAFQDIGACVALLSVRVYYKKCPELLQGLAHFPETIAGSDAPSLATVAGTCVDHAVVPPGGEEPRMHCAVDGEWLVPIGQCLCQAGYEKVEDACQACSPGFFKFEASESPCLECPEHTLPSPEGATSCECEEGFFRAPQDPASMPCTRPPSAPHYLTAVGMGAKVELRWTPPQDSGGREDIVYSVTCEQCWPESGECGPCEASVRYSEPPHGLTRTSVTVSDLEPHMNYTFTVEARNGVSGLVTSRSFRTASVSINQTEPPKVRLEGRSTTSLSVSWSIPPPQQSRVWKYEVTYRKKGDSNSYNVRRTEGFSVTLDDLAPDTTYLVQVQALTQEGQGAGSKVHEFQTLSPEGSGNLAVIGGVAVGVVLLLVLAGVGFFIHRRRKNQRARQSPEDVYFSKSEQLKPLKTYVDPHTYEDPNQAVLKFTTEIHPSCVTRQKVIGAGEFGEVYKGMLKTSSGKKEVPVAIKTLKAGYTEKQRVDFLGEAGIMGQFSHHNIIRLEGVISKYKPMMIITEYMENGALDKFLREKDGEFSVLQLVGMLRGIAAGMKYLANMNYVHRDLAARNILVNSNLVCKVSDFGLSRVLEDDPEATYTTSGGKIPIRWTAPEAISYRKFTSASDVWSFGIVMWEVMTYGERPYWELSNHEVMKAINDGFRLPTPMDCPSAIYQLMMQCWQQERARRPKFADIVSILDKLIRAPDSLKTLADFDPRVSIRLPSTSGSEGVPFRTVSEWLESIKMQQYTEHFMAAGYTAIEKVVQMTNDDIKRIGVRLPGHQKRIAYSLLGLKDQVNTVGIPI

[3] = target: RAC-alpha serine/threonine-protein kinase (Homo sapiens, UniProt P31749); assay: Binding affinity to AKT1 (unknown origin)
Chain of RAC-alpha serine/threonine-protein kinase (P31749 whole entry): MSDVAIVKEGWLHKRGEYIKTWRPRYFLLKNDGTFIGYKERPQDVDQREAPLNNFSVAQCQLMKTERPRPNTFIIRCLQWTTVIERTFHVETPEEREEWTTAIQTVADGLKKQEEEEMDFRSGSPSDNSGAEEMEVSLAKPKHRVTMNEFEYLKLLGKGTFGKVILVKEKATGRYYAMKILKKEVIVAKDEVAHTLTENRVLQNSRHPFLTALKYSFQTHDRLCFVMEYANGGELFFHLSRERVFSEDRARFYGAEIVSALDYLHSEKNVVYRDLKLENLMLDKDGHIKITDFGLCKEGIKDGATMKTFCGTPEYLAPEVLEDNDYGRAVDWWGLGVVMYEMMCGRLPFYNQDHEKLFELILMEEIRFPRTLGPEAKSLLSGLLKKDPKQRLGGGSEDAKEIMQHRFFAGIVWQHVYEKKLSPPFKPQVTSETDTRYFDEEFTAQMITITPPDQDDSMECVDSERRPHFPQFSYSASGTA

C13 [4] = assay: Antimigratory activity in human C13 cells assessed as delay in wound closure at 15 uM after 24 hrs by scratch-wound motility assay; format: functional
C13 [5] = assay: Antimigratory activity in human C13 cells after 24 hrs by scratch-wound motility assay; format: functional, cell-based
C13 [6] = assay: Antimigratory activity in human C13 cells at 10 uM by scratch-wound motility assay; format: functional, cell-based; details: TDE = time-dependent effect

| Compound | Selectivity ratio (Homo sapiens) | Kd [1] [µM] | Kd [2] [µM] | Kd (Ephrin type-A receptor 2) [µM] | Kd [3] [µM] | Activity (C13 [4]) [%] | Activity (C13 [5]) | Activity (C13 [6]) |
| --- | --- | --- | --- | --- | --- | --- | --- | --- |
| NC(=O)[C@H](CCCCNC(=S)Nc1ccc(-c2c3ccc(=O)cc-3oc3cc(O)ccc23)c(C(=O)O)c1)NC(=O)CN1C[C@H](Cc2ccccc2)NC(=O)CN(C(=O)CCC(=O)O)C[C@H](CCC(=O)O)NC(=O)CN(C(=O)Cc2ccc3c(c2)OCO3)C[C@H](CCC(=O)O)NC(=O)CN(C(=O)CCC2CCCCC2)C[C@H](Cc2ccccc2)NC(=O)c2ccc(cc2)CSCCC1=O | 170 | 14.2 | 0.741 | 0.081 | 3.62 |  |  |  |
| NC(=O)CN1C[C@H](Cc2ccccc2)NC(=O)CN(C(=O)CCC(=O)O)C[C@H](CCC(=O)O)NC(=O)CN(C(=O)Cc2ccc3c(c2)OCO3)C[C@H](CCC(=O)O)NC(=O)CN(C(=O)CCC2CCCCC2)C[C@H](Cc2ccccc2)NC(=O)c2ccc(cc2)CSCCC1=O |  |  |  |  |  | 70 | Dose-dependent effect | Tde |
